Data reported in patent US20230096028A1, “BICYCLIC HETEROCYCLYL COMPOUNDS AND USES THEREOF” (Revolution Medicines, Inc., priority 2019, published 2023).
Values belong to the compound of their own block, whether it stands above or below them.

Columns and labels:
[1] = tested on: PC-9 cells (EGFR Ex19Del); test: Potency Assay: pERK (SOS1 pERK IC50 Assay, AlphaLISA SureFire Ultra p-ERK1/2); assay type: cell-based; conditions: Homo sapiens; PC-9 cells (EGFR Ex19Del), 1 hour incubation, AlphaLISA p-ERK1/2; read-out: SOS1 pERK IC50
How it was run: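 PC-9 (EGFR Ex19Del) cells plated overnight, then treated 1 h at 37° C. with 10-point 3-fold dilutions (top 10 μM final) in duplicate. Lysate pERK1/2 measured by AlphaLISA SureFire Ultra; IC50 from 4-parameter sigmoidal fit.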

[2] = molecular target: T1, SOS1 catalytic domain (residues 564-1049) (Homo sapiens, UniProt Q07889); test: Potency Assay: binding affinity to SOS1 using Surface Plasmon Resonance (SPR); set-up: SOS1 catalytic domain (residues 564-1049) immobilized on a sensor chip; conditions: immobilized SOS1 catalytic domain (residues 564-1049), read-out: SOS1 SPR Equilibrium Kd
T1 sequence (Q07889 564-1049): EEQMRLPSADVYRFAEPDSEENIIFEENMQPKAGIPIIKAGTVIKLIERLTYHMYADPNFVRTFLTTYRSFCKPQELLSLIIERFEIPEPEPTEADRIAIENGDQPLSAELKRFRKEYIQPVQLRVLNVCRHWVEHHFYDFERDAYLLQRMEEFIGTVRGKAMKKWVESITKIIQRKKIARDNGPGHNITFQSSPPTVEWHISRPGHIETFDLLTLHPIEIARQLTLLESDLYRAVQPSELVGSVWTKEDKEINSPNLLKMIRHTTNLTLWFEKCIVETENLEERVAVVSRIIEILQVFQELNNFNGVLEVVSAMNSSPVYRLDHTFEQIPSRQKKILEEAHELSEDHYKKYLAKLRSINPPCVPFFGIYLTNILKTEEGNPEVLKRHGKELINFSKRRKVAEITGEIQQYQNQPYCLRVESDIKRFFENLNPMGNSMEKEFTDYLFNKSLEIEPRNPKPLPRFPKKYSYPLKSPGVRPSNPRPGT
How it was run: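 Avi-tagged SOS1 catalytic domain captured on streptavidin chip (~6000 RU) in 0.01 M HEPES, 0.15 M NaCl, 0.05% P20. Compound dilution series flowed at 50 μL/min for association, then buffer for dissociation, with double reference subtraction. Kd derived from end-of-association binding response plotted against concentration.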

[3] = molecular target: T1, SOS1 catalytic domain (residues 564-1049); test: Mode of Action Assay: inhibition of SOS1 nucleotide exchange activity (SOS1 TR-FRET IC50 Assay)

SMILES: COc1nccc(C(=O)N2CCc3nc(Cl)nc(N[C@H](C)c4cc(N)cc(C(F)(F)F)c4)c3C2)n1 [Example 234]
IC50 [1]: > 1000 nM
Kd [2]: > 400 nM
IC50 [3]: > 1000 nM

SMILES: COC(=O)N1C[C@@H]2COC[C@]2(C(=O)N2CCc3nc(Cl)nc(N[C@H](C)c4cc(N)cc(C(F)(F)F)c4)c3C2)C1 [Example 221]
IC50 [1]: > 1000 nM
Kd [2]: > 400 nM
IC50 [3]: < 1000 nM

SMILES: C[C@@H](Nc1nc(C2CN(C)C2)nc2c1CN(C(=O)N1CCOCC1)C2)c1cccc(C(F)F)c1F [Example 447, (R)-(4-((1-(3-(difluoromethyl)-2-fluorophenyl)ethyl)amino)-2-(1-methylazetidin-3-yl)-5,7-dihydro-6H-pyrrolo[3,4-d]pyrimidin-6-yl)(morpholino)methanone]
IC50 [1]: > 1000 nM
Kd [2]: < 400 nM
IC50 [3]: < 1000 nM

SMILES: C[C@@H](Nc1nc(Cl)nc2c1CN(C(=O)N1CCNCC13COC3)C2)c1cccc(C(F)F)c1F [Example 405]
IC50 [1]: > 1000 nM
Kd [2]: < 400 nM
IC50 [3]: < 1000 nM

SMILES: COC1(C(=O)N2Cc3nc(C(N)=O)nc(N[C@H](C)c4cccc(C(F)F)c4F)c3C2)CCOCC1 [Example 510, 4-{[(1R)-1-[3-(difluoromethyl)-2-fluorophenyl]ethyl]-amino}-6-(4-methoxyoxane-4-carbonyl)-5H,6H,7H-pyrrolo[3,4-d]pyrimidine-2-carboxamide]
IC50 [1]: > 1000 nM
Kd [2]: < 400 nM
IC50 [3]: < 1000 nM

SMILES: C[C@@H](Nc1ncnc2c1CC(N1CC3(COC3)C1)CC2)c1cccc(C(F)F)c1F (stereo partly drawn) [Example 442]
IC50 [1]: > 1000 nM
Kd [2]: < 400 nM
IC50 [3]: < 1000 nM

SMILES: COC1(C(=O)N2Cc3nc(Cl)nc(N[C@H](C)c4cccc(C(F)F)c4F)c3C2)CCNCC1 [Example 310]
IC50 [1]: < 1000 nM
Kd [2]: < 400 nM
IC50 [3]: < 1000 nM

SMILES: C[C@@H](Nc1nc(Cl)nc2c1CN(C(=O)[C@@H]1CNC[C@@H]1C)C2)c1cc(N)cc(C(F)(F)F)c1 [Example 264]
IC50 [1]: > 1000 nM
Kd [2]: < 400 nM
IC50 [3]: < 1000 nM

SMILES: C[C@@H](Nc1nc(Cl)nc2c1CN(C(=O)N1CCN(C3COC3)CC1)C2)c1cccc(C(F)F)c1F [Example 383]
IC50 [1]: < 1000 nM
Kd [2]: < 400 nM
IC50 [3]: < 1000 nM

SMILES: C[C@@H](Nc1nc(Cl)nc2c1CN(C(=O)C1(C#N)CCNCC1)C2)c1cccc(C(F)F)c1F [Example 294]
IC50 [1]: < 1000 nM
Kd [2]: < 400 nM
IC50 [3]: < 1000 nM

SMILES: C[C@@H](Nc1nc(Cl)nc2c1CN(C(=O)N1C[C@@H]3C[C@H]1CN3)C2)c1cccc(C(F)F)c1F [Example 399]
IC50 [1]: > 1000 nM
Kd [2]: < 400 nM
IC50 [3]: < 1000 nM

SMILES: C[C@@H](Nc1nc(Cl)nc2c1CN(C(=O)C1(O)COC1)CC2)c1cc(N)cc(C(F)(F)F)c1 [Example 226]
IC50 [1]: > 1000 nM
Kd [2]: < 400 nM
IC50 [3]: > 1000 nM

SMILES: COC1(C(=O)N2Cc3nc(Cl)nc(N[C@H](C)c4cc(N)cc(C(F)(F)F)c4)c3C2)CCOCC1 [Example 93]
IC50 [1]: < 1000 nM
Kd [2]: < 400 nM
IC50 [3]: < 1000 nM

SMILES: C[C@@H](Nc1nc(C(F)F)nc2c1CN(C(=O)N1CCOCC1)C2)c1cc(N)cc(C(F)(F)F)c1 [Example 132, N-[(1R)-1-[3-amino-5-(trifluoromethyl)phenyl]ethyl]-2-(difluoromethyl)-6-(morpholine-4-carbonyl)-5H,6H,7H-pyrrolo[3,4-d]pyrimidin-4-amine]
IC50 [1]: < 1000 nM
Kd [2]: < 400 nM
IC50 [3]: < 1000 nM

SMILES: COC1CN([C@H]2CCc3ncnc(N[C@H](C)c4cccc(C(F)F)c4F)c3C2)C1 [Example 444]
IC50 [1]: > 1000 nM
Kd [2]: < 400 nM
IC50 [3]: < 1000 nM

SMILES: C[C@@H](Nc1nc(Cl)nc2c1CN(C(=O)c1cc(N3CCOCC3)ccn1)CC2)c1cc(N)cc(C(F)(F)F)c1 [Example 238]
IC50 [1]: > 1000 nM
Kd [2]: > 400 nM
IC50 [3]: > 1000 nM

The remaining lines, values ahead:

IC50 [1]: < 1000 nM
Kd [2]: < 400 nM
IC50 [3]: < 1000 nM
SMILES: CCc1nc2c(c(N[C@H](C)c3cc(N)cc(C(F)(F)F)c3)n1)CN(C(=O)N1CCOCC1)C2 [Example 128, N-[(1R)-1-[3-amino-5-(trifluoromethyl)phenyl]ethyl]-2-ethyl-6-(morpholine-4-carbonyl)-5H,6H,7H-pyrrolo[3,4-d]pyrimidin-4-amine]

IC50 [1]: < 1000 nM
Kd [2]: < 400 nM
IC50 [3]: < 1000 nM
SMILES: C[C@@H](Nc1nc(Cl)nc2c1CN(C(=O)N1CCNCC1c1cccnc1)C2)c1cccc(C(F)F)c1F (stereo partly drawn) [Example 386]

IC50 [1]: < 1000 nM
Kd [2]: < 400 nM
IC50 [3]: < 1000 nM
SMILES: C[C@@H](Nc1nc(Cl)nc2c1CN(S(=O)(=O)C1CC(F)(F)C1)CC2)c1cc(N)cc(C(F)(F)F)c1 [Example 456]

IC50 [1]: < 1000 nM
Kd [2]: < 400 nM
IC50 [3]: < 1000 nM
SMILES: C[C@@H](Nc1nc(Cl)nc2c1C[C@H](N1CCOCC1)CC2)c1cccc(C(F)(F)CO)c1 [Example 437]

IC50 [1]: < 1000 nM
Kd [2]: < 400 nM
IC50 [3]: < 1000 nM
SMILES: C[C@@H](Nc1nc(CO)nc2c1CN(C(=O)N1CCOCC1)C2)c1cc(N)cc(C(F)(F)F)c1 [Example 129, (4-{[(1R)-1-[3-amino-5-(trifluoromethyl)-phenyl]ethyl]amino}-6-(morpholine-4-carbonyl)-5H,6H,7H-pyrrolo[3,4-d]pyrimidin-2-yl)methanol]

IC50 [1]: < 1000 nM
Kd [2]: < 400 nM
IC50 [3]: < 1000 nM
SMILES: C[C@@H](Nc1nc(Cl)nc2c1CN(C(=O)C1CCNCC1(F)F)C2)c1cccc(C(F)F)c1F (stereo partly drawn) [Example 311]

IC50 [1]: < 1000 nM
Kd [2]: < 400 nM
IC50 [3]: < 1000 nM
SMILES: C[C@@H](Nc1nc(Cl)nc2c1CN(C(=O)N1CCNC(C(F)(F)F)C1)C2)c1cc(N)cc(C(F)(F)F)c1 (stereo partly drawn) [Example 359]

IC50 [1]: < 1000 nM
Kd [2]: < 400 nM
IC50 [3]: < 1000 nM
SMILES: C[C@@H](Nc1nc(Cl)nc2c1CN(C(=O)C1(CO)COC1)CC2)c1cc(N)cc(C(F)(F)F)c1 [Example 225]

IC50 [1]: < 1000 nM
Kd [2]: > 400 nM
IC50 [3]: < 1000 nM
SMILES: C[C@@H](Nc1nc(Cl)nc2c1CN(C(=O)c1cccc3c1OCCN3)C2)c1cc(N)cc(C(F)(F)F)c1 [Example 77]

IC50 [1]: < 1000 nM
Kd [2]: < 400 nM
IC50 [3]: < 1000 nM
SMILES: C[C@@H](Nc1nc(Cl)nc2c1CN(S(=O)(=O)C1CC1)CC2)c1cc(N)cc(C(F)(F)F)c1 [Example 452]

IC50 [1]: < 1000 nM
Kd [2]: < 400 nM
IC50 [3]: < 1000 nM
SMILES: C[C@@H](Nc1nc(Cl)nc2c1CN(C(=O)c1cnc[nH]1)C2)c1cc(N)cc(C(F)(F)F)c1 [Example 108]

IC50 [1]: < 1000 nM
Kd [2]: < 400 nM
IC50 [3]: > 1000 nM
SMILES: C[C@@H](Nc1nc(Cl)nc2c1CN(C(=O)[C@@H]1C[C@@H]1C#N)CC2)c1cc(N)cc(C(F)(F)F)c1 [Example 205]

IC50 [1]: < 1000 nM
Kd [2]: < 400 nM
IC50 [3]: < 1000 nM
SMILES: C[C@@H](Nc1nc(Cl)nc2c1CN(C(=O)C1(O)COC1)C2)c1cccc(C(F)F)c1F [Example 300]

IC50 [1]: < 1000 nM
Kd [2]: < 400 nM
IC50 [3]: < 1000 nM
SMILES: C[C@@H](Nc1nc(Cl)nc2c1CC(N1CC3(COC3)C1)CC2)c1cc(N)cc(C(F)(F)F)c1 (stereo partly drawn) [Example 433]

IC50 [1]: < 1000 nM
Kd [2]: < 400 nM
IC50 [3]: < 1000 nM
SMILES: C[C@@H](Nc1nc(I)nc2c1CN(C(=O)N1CCOCC1)C2)c1cc(N)cc(C(F)(F)F)c1 [Example 134, N-[(1R)-1-[3-amino-5-(trifluoromethyl)phenyl]ethyl]-2-iodo-6-(morpholine-4-carbonyl)-5H,6H,7H-pyrrolo[3,4-d]pyrimidin-4-amine]
